Assay results: patent US11230547B2, “Purine inhibitors of human phosphatidylinositol 3-kinase delta” (Merck Sharp & Dohme Corp., priority 2017, dated 2022)

Tests used:
PI3Kdelta = PI3Kdelta (Homo sapiens (Human), UniProt O00329); assay: HTRF PI3K biochemical assay, delta isoform; conditions: 0.3 nM enzyme, 100 uM ATP, 5 uM PIP2, form screened per table
Summary of the method: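 PI3Kδ at 0.3 nM preincubated 15 min with compound, then reacted 1 h at room temperature with 100 uM ATP and 5 uM PIP2. PIP3 product detected by competitive HTRF displacing biotin-PIP3 from GST-GRP1 PH domain, so signal falls with activity. 10-point 3-fold dose response.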

PI3Kalpha = PI3Kalpha (Homo sapiens (Human), UniProt P42336); assay: HTRF PI3K biochemical assay, alpha isoform (selectivity versus delta); conditions: relative ratio PI3K-alpha IC50 value / PI3K-delta IC50 value
Sequence of PI3Kalpha (P42336 whole entry, the tested form may be a part, canonical isoform): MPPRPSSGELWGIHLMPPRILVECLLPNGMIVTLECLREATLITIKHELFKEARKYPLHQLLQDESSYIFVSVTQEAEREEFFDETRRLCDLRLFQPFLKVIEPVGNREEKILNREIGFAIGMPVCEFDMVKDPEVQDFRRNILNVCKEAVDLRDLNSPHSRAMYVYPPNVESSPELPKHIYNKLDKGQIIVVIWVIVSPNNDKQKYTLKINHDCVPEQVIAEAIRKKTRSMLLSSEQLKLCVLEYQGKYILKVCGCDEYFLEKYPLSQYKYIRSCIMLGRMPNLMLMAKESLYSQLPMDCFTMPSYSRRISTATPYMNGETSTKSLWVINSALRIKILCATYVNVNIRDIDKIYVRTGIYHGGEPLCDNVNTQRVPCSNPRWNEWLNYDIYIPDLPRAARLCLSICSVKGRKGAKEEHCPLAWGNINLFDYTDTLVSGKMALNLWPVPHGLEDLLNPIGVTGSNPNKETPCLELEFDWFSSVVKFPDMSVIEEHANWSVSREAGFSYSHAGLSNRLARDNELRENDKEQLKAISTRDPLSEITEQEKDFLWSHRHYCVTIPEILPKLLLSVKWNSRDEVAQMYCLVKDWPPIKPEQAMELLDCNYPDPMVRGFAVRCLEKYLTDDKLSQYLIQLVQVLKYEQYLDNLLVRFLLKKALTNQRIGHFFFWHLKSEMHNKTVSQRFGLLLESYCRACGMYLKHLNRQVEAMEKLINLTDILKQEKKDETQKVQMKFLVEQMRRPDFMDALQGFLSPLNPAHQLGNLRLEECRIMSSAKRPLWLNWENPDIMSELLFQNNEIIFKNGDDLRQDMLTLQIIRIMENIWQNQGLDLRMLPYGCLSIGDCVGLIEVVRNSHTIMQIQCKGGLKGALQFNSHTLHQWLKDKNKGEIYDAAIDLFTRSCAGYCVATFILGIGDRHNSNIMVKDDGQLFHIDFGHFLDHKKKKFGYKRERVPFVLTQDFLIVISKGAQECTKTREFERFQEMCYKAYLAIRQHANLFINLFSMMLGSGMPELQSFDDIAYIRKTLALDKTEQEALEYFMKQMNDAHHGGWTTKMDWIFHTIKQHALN
Sequence of PI3Kalpha (P27986 whole entry partner, the tested form may be a part, canonical isoform): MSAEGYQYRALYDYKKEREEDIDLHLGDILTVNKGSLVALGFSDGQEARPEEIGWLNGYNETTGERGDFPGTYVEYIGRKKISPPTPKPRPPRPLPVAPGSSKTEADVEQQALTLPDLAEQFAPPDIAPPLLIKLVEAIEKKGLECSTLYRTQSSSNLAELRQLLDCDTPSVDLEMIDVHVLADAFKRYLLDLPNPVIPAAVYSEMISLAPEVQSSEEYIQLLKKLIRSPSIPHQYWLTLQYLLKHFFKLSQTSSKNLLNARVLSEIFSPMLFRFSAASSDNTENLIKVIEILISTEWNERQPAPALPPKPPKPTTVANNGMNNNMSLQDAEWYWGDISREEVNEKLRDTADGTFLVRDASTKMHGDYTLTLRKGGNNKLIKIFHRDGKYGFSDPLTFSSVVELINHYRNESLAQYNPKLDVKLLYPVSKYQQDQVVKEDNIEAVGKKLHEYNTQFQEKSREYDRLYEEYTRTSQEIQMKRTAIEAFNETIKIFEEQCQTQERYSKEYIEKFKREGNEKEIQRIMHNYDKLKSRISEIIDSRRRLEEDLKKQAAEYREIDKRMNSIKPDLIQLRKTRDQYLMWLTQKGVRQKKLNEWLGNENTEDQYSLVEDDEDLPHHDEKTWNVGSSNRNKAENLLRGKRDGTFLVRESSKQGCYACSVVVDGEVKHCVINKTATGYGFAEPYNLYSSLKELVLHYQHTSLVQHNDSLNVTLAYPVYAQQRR
Summary of the method: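 Recombinant human PI3Kα (0.5 nM) preincubated 15 min with compound, then reacted 1 h at room temperature with 100 uM ATP and 5 uM PIP2. PIP3 formation detected by HTRF competition with biotin-PIP3 for GST-GRP1 PH domain (Eu/APC, 665/620 nm); product lowers signal.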

Sequence of PI3Kdelta (O00329 whole entry, the tested form may be a part, canonical isoform): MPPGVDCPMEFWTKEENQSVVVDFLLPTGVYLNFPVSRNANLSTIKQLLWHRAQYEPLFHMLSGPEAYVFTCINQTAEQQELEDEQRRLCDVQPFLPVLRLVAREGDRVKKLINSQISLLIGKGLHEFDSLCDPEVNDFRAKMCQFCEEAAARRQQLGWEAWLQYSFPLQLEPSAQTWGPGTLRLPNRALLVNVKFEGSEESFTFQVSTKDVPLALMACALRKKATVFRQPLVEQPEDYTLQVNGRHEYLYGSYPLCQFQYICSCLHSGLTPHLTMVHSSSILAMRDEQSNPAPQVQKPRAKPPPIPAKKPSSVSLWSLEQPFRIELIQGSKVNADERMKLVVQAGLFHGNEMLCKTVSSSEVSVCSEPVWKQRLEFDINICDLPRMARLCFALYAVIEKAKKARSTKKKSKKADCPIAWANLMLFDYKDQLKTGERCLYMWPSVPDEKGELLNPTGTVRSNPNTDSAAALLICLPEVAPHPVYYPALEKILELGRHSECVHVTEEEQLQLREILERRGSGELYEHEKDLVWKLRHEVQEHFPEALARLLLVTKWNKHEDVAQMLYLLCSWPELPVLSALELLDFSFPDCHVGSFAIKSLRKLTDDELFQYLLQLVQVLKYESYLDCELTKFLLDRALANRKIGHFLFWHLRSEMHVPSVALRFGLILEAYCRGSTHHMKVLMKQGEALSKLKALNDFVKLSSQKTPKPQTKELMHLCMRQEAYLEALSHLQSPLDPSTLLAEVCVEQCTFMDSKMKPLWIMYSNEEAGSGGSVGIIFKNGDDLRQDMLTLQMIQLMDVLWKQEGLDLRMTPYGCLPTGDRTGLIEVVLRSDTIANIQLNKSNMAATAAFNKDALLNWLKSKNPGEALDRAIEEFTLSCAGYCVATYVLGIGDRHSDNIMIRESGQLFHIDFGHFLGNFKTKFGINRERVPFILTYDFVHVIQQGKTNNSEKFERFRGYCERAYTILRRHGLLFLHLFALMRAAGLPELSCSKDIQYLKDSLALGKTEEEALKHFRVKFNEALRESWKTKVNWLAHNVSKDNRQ
Sequence of PI3Kdelta (P27986 whole entry partner, the tested form may be a part, canonical isoform): as the sequence (P27986 whole entry partner, the tested form may be a part, canonical isoform) above

IC50 (PI3Kdelta) [nM]	Selectivity versus PI3Kalpha (PI3Kalpha)	Compound
160	>10	C[C@@H]1CN(c2nc(-c3cnn(C)c3CCC(F)(F)F)ncc2C#N)CCN1C(=O)C1CC1 [Compound 6-11, 4-[(3R)-4-(cyclopropylcarbonyl)-3-methylpiperazin-1-yl]-2-[1-methyl-5-(3,3,3-trifluoropropyl)-1H-pyrazol-4-yl]pyrimidine-5-carbonitrile]
340	>10	CSc1cnc(N2CCN(C(=O)C3CC3)[C@H](C)C2)nc1-c1cnn(C)c1 [Compound 5-10, 2-[(3R)-4-(cyclopropylcarbonyl)-3-methylpiperazin-1-yl]-4-(1-methyl-1H-pyrazol-4-yl)-5-(methylsulfanyl)pyrimidine]
480	>10	CC(=O)Nc1nc(-c2cnn(C)c2)nc(N2CCN(C(=O)C3CC3)[C@H](C)C2)c1C#N [Compound 6-3, N-{5-cyano-6-[(3R)-4-(cyclopropylcarbonyl)-3-methylpiperazin-1-yl]-2-(1-methyl-1H-pyrazol-4-yl)pyrimidin-4-yl}acetamide]
12	>10	CC(C)C#Cc1cnc(N2CCN(C(=O)C3CC3)[C@H](C)C2)nc1-c1cnn(C)c1 [Compound 5-8, 2-[(3R)-4-(cyclopropylcarbonyl)-3-methylpiperazin-1-yl]-5-(3-methylbut-1-yn-1-yl)-4-(1-methyl-1H-pyrazol-4-yl)pyrimidine]
130	>10	Cn1cc(-c2ncc(C#N)c(N3CC4C[C@H]3CN4c3cccc(C4CC4)c3)n2)cn1 (stereo in doubt) [Compound 1-11, 4-[(1S,4R)-5-(3-cyclopropylphenyl)-2,5-diazabicyclo[2.2.1]hept-2-yl]-2-(1-methyl-1H-pyrazol-4-yl)pyrimidine-5-carbonitrile]
83	>10	C[C@@H]1CN(c2nc(-c3cnn4c3CCC4)ncc2C#N)CCN1C(=O)C1CC1 [Compound 6-15, 4-[(3R)-4-(cyclopropylcarbonyl)-3-methylpiperazin-1-yl]-2-(5,6-dihydro-4H-pyrrolo[1,2-b]pyrazol-3-yl)pyrimidine-5-carbonitrile]
500	>10	Cn1cc(-c2ncc(C#N)c(N3CC4C[C@H]3CN4C(=O)c3cccs3)n2)cn1 (stereo in doubt) [Compound 2-10, 2-(1-methyl-1H-pyrazol-4-yl)-4-[(1S,4R)-5-(thiophen-2-ylcarbonyl)-2,5-diazabicyclo[2.2.1]hept-2-yl]pyrimidine-5-carbonitrile]
220	>10	Cn1cc(-c2ncc(C#N)c(N3CC4C[C@H]3CN4c3cccc(C(C)(C)O)c3)n2)cn1 (stereo in doubt) [Compound 1-5, 4-{(1S,4R)-5-[3-(1-hydroxy-1-methylethyl)phenyl]-2,5-diazabicyclo[2.2.1]hept-2-yl}-2-(1-methyl-1H-pyrazol-4-yl)pyrimidine-5-carbonitrile]
69	>10	Cn1cc(-c2ncc(C#N)c(N3CC4C[C@H]3CN4c3cccc(C#N)c3)n2)cn1 (stereo in doubt) [Compound 1-1, 4-[(1S,4R)-5-(3-cyanophenyl)-2,5-diazabicyclo[2.2.1]hept-2-yl]-2-(1-methyl-1H-pyrazol-4-yl)pyrimidine-5-carbonitrile]
160	>10	Cn1cc(-c2ncc(C#N)c(N3CC4C[C@H]3CN4C(=O)C(C)(C)CF)n2)cn1 (stereo in doubt) [Compound 2-6, 4-[(1S,4R)-5-(3-fluoro-2,2-dimethylpropanoyl)-2,5-diazabicyclo[2.2.1]hept-2-yl]-2-(1-methyl-1H-pyrazol-4-yl)pyrimidine-5-carbonitrile]
5	>10	C[C@@H]1CN(c2nc(-c3cnn(C)c3)nc(NC(=O)NC3CCC3)c2C#N)CCN1C(=O)C1CC1 [Compound 6-17, 1-{5-cyano-6-[(3R)-4-(cyclopropylcarbonyl)-3-methylpiperazin-1-yl]-2-(1-methyl-1H-pyrazol-4-yl)pyrimidin-4-yl}-3-cyclobutylurea]
260	>10	CCC(=O)N1CCN(c2nc(-c3cnn(C)c3)ncc2C#N)C[C@H]1C [Compound 4-2, 4-[(3R)-3-methyl-4-propanoylpiperazin-1-yl]-2-(1-methyl-1H-pyrazol-4-yl)pyrimidine-5-carbonitrile]
1100	>10	Cn1cc(-c2ncc(C#N)c(N3CC4C[C@H]3CN4C(=O)c3cocn3)n2)cn1 (stereo in doubt) [Compound 2-11, 2-(1-methyl-1H-pyrazol-4-yl)-4-[(1S,4R)-5-(1,3-oxazol-4-ylcarbonyl)-2,5-diazabicyclo[2.2.1]hept-2-yl]pyrimidine-5-carbonitrile]
480	10	Cn1cc(-c2ncc(C#N)c(N3CC4C[C@H]3CN4C(=O)CC3COC3)n2)cn1 (stereo in doubt) [Compound 2-12, 2-(1-methyl-1H-pyrazol-4-yl)-4-[(1S,4R)-5-(oxetan-3-ylacetyl)-2,5-diazabicyclo[2.2.1]hept-2-yl]pyrimidine-5-carbonitrile]
620	>10	CCCS(=O)(=O)N1C[C@@H]2CC1CN2c1nc(-c2cnn(C)c2)ncc1C#N (stereo in doubt) [Compound 2-14, 2-(1-methyl-1H-pyrazol-4-yl)-4-[(1S,4R)-5-(propylsulfonyl)-2,5-diazabicyclo[2.2.1]hept-2-yl]pyrimidine-5-carbonitrile]
86	>10	N#Cc1cnc(N2Cc3cn[nH]c3C2)nc1N1CC2C[C@H]1CN2c1cccc(F)c1 (stereo in doubt) [Compound 1-3, 2-(4,6-dihydropyrrolo[3,4-c]pyrazol-5(1H)-yl)-4-[(1S,4R)-5-(3-fluorophenyl)-2,5-diazabicyclo[2.2.1]hept-2-yl]pyrimidine-5-carbonitrile]
170	>10	C[C@@H]1CN(c2nc(-c3cnn(C)c3)ncc2C#N)CCN1c1cccc(F)c1 [Compound 3-3, 4-[(3R)-4-(3-fluorophenyl)-3-methylpiperazin-1-yl]-2-(1-methyl-1H-pyrazol-4-yl)pyrimidine-5-carbonitrile]
1600	7	Cn1cc(-c2ncc(C#N)c(N3CCN(c4cccc(F)c4)CC3)n2)cn1 [Compound 3-2, 4-[4-(3-fluorophenyl)piperazin-1-yl]-2-(1-methyl-1H-pyrazol-4-yl)pyrimidine-5-carbonitrile]
9.4	>10	C[C@@H]1CN(c2nc(-c3cnn(C)c3)nc(NCCC(F)(F)F)c2C#N)CCN1C(=O)C1CC1 [Compound 6-19, 4-[(3R)-4-(cyclopropylcarbonyl)-3-methylpiperazin-1-yl]-2-(1-methyl-1H-pyrazol-4-yl)-6-[(3,3,3-trifluoropropyl)amino]pyrimidine-5-carbonitrile]
5.6	>10	CC(C)NC(=O)Nc1nc(-c2cnn(C)c2)nc(N2CCN(C(=O)C3CC3)[C@H](C)C2)c1C#N [Compound 6-2, 1-{5-cyano-6-[(3R)-4-(cyclopropylcarbonyl)-3-methylpiperazin-1-yl]-2-(1-methyl-1H-pyrazol-4-yl)pyrimidin-4-yl}-3-(1-methylethyl)urea]
21	>10	C[C@@H]1CN(c2ncc(C#N)c(-c3cnn(C)c3)n2)CCN1C(=O)C1CC1 [Compound 5-4, 2-[(3R)-4-(cyclopropylcarbonyl)-3-methylpiperazin-1-yl]-4-(1-methyl-1H-pyrazol-4-yl)pyrimidine-5-carbonitrile]
10	>10	CCCc1nc(N2CCN(C(=O)C3CC3)[C@H](C)C2)nc(-c2cnn(C)c2)c1C#N [Compound 6-25, 2-[(3R)-4-(cyclopropylcarbonyl)-3-methylpiperazin-1-yl]-4-(1-methyl-1H-pyrazol-4-yl)-6-propylpyrimidine-5-carbonitrile]
